{"source": "patent US20250375416A1", "about": "“SERINE PROTEASE INHIBITORY EFFECTS OF HEALTH SUPPLEMENTS IN HUMAN CANCEROUS CELL LINES” (priority 2022, published 2025)", "key": {"Trypsin": {"molecular_target": "T1, Trypsin (Sus scrofa, UniProt P00761)", "T1 construct": "purchased Gibco Lot no-2455123", "T1 sequence (P00761 9-231)": "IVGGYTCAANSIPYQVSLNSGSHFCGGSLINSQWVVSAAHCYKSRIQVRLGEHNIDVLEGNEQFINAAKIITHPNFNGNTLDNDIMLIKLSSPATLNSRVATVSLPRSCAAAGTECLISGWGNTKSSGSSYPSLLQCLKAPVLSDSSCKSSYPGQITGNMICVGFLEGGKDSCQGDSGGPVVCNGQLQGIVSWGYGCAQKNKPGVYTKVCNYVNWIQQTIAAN", "assay": "Trypsin inhibition by health supplements in confluent A549 cells (cell detachment, crystal violet staining, microscopy)", "format": "cell-based", "conditions": "for concentration at end point dilution of trypsin inhibition: FIG. 11, 0.125% trypsin, serial dilutions in 24 well plate; for concentration at end point of trypsin inhibitory effects: FIG. 13, cell morphology under microscope vs cell and trypsin control", "method": "In a preferred embodiment, supplements are diluted two to five-fold dilutions (where ever necessary) in PBS (pH 7.4) either as single component and/or various combinations and tested in cell lines grown in either 6, 12, 24 and/or 48 well plates. Cell (CC) and trypsin control (TC) were kept as protease negative and positive indicators in every experiment. Trypsin-EDTA (Gibco Lot no-2455123, Canada) was added into all wells (0.125%) expect cell control wells.\n(§1) Fluids from the plate was discarded and washed twice with PBS. Following wash the plate was stained with 1% crystal violet in […] at room temperature for 5 minutes. Following incubation, crystal violet from each well was discarded and washed two to three times with PBS and removed any excess dye from each well.\n(§2) Health supplements were collected from pharmaceutical laboratory and were randomly screened in one of the lungs cancer cell lines called A549 for their protease inhibitory effects. Cells were cultivated in 6 well plate using standard technique until confluent. Once the plate is ready, culture media from each well were removed and washed two times with PBS. Following wash, 500 μl of supplements at appropriate dilutions were added into well followed by 500 μl of trypsin (0.25%) to each well except the well having cell control (CC). Plate was incubated at 37° C. and checked at every 5 minutes to see the effect of trypsin on cell morphology. Once cells in trypsin control well lift off from the surface, discard fluid from all wells, wash two times with PBS and stained cells by 1% crystal violet (in alcohol) for two-three minutes. Following staining wells were washed 2-3 times with PBS in order to remove excess dye and finally checked the cell morphology using inverted microscope as well as by naked eye (FIG. 7, 8).\nA further experiment was conducted using serine proteases (Trypsin and Elastase) against two formulations of health supplements such as Vitamin C and combination Vitamins C (PC Drug Center Ltd, Bangkok, Thailand) with Thiamine (B1-Roche, lot no: 8077395)) and Pyridoxine (B6, Roche, lot no: 8079496). This formulation of three vitamins is designed as tbc and experiment was conducted in six well plate with confluent A549 cells using technique described in [0044].\nThe end point of trypsin inhibition of each supplement was calculated in terms of μg/ml. The cell morphologies were also observed by under inverted microscope (4×10) and are shown FIG. 12-15."}, "Elastase": {"molecular_target": "T2, Elastase (Sus scrofa, UniProt P00772)", "T2 construct": "purchased SIGMA E017-5 mg", "T2 sequence (P00772 27-266)": "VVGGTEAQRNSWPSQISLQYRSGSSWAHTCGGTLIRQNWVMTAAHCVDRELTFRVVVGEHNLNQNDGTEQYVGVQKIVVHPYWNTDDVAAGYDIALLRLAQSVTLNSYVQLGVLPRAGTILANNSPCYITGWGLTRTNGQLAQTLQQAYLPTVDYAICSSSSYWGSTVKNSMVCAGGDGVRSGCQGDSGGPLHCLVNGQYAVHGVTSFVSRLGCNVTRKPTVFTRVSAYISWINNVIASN", "assay": "Elastase inhibition by health supplements in confluent A549 cells (cell detachment, crystal violet staining, microscopy)", "format": "cell-based", "method": "as §1\nIn a solution of the preferred inhibitor of the present invention in which the inhibitor and trypsin are present in a concentration greater 0.355 mM verses 0.524 mM such inhibitor would react >95% of an equivalent molecular amount of trypsin.\nas §2, with “Following staining wells were washed 2-3 times with PBS in order to remove excess dye and finally checked the cell morphology using inverted microscope as well as by naked eye (FIG. 7, 8).” left out"}, "[1]": {"conditions": "FIG. 12, trypsin at 1.25% concentration, microscopy"}}, "data": [{"smiles": "O=C1O[C@H]([C@@H](O)CO)C(O)=C1O", "note": "[AC-1, Ascorbic acid]", "values": [{"measurement": "concentration at end point dilution of trypsin inhibition", "setting": "Trypsin", "value": 0.25, "unit": "%"}, {"measurement": "concentration efficiently neutralizing catalytic activities of trypsin", "setting": "Trypsin; [1]", "value": 0.25, "unit": "%"}, {"measurement": "concentration from which capability of neutralization of trypsin starts to be lost", "setting": "Trypsin; [1]", "value": 0.125, "unit": "%"}]}, {"smiles": "Cc1ncc(C[n+]2csc(CCO)c2C)c(N)n1", "note": "[B1, Thiamine]", "values": [{"measurement": "concentration at end point dilution of trypsin inhibition", "setting": "Trypsin", "value": 1.0, "unit": "%"}, {"measurement": "concentration at end point of trypsin inhibitory effects", "setting": "Trypsin", "value": 1.0, "unit": "%"}]}, {"smiles": "Cc1ncc(CO)c(CO)c1O", "note": "[B6, Pyridoxine]", "values": [{"measurement": "concentration at end point dilution of trypsin inhibition", "setting": "Trypsin", "value": 0.5, "unit": "%"}, {"measurement": "concentration at end point of trypsin inhibitory effects", "setting": "Trypsin", "value": 0.5, "unit": "%"}]}, {"smiles": "O=C1O[C@H]([C@@H](O)CO)C(O)=C1O", "note": "[vitamin C, Ascorbic acid]", "values": [{"measurement": "inhibition of enzymatic activities of Trypsin (T)", "setting": "Trypsin; FIG. 7, A549 cells, compared with cell control (CC) and trypsin control (TC)", "value": "showed inhibitions of enzymatic activities"}, {"measurement": "level of inhibition against trypsin", "setting": "Trypsin; FIG. 9, A549, six well plate, 1.25% trypsin, Ascorbic acid 2.5% alone or tbc (Ascorbic acid 2.5%, Thiamine 0.1%, Pyridoxine 0.15%)", "value": "good level of inhibition"}, {"measurement": "inhibition of enzymatic activities of Elastase (E)", "setting": "Elastase; FIG. 7, A549 cells, compared with cell control (CC) and elastase control (EC)", "value": "showed inhibitions of enzymatic activities"}, {"measurement": "level of inhibition against elastase", "setting": "Elastase; FIG. 9, A549, six well plate, 0.5% elastase, Ascorbic acid 2.5% alone or tbc (Ascorbic acid 2.5%, Thiamine 0.1%, Pyridoxine 0.15%)", "value": "good level of inhibition"}]}]}
